Values joined by “and” are separate entries in the source; they are usually repeats but may differ in a detail not shown here. Identical values can stand only once.
Columns and labels:
M. smegmatis DprE1 = tested on: M. smegmatis DprE1; set-up: method as in PMID 22956199; details: cited from earlier work
M. smegmatis [1] = assay: MIC against M. smegmatis (literature); type: cell-based; details: from literature values
M. smegmatis [2] = tested on: M. smegmatis; set-up: method as in PMID 22956199; details: cited from earlier work

## C[C@H]1COC2(CCN(c3nc(=O)c4cc(C(F)(F)F)cc(NO)c4s3)CC2)O1 [BTZ046]
M. smegmatis DprE1
  time dependent inhibition of M. smegmatis DprE1: not observed
M. smegmatis DprE1; read-out: M. smegmatis DprE1 enzymatic IC50
  IC50: 20 µM
M. smegmatis [1]
  fold by which MIC against M. smegmatis is lower than the enzymatic IC50: approximately 8 fold
M. smegmatis [2]
  MIC against M. smegmatis: 1000 ng/ml and 2.4 μM

Reference: paper PMC6128881, “Novel insight into the reaction of nitro, nitroso and hydroxylamino benzothiazinones and of benzoxacinones with Mycobacterium tuberculosis DprE1” (Scientific Reports, 2018)
